Source: ChEMBL document CHEMBL1201862, “PubChem BioAssay data set” (2004)
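Cells were grown in 96-well plates and exposed to each compound for 48 hours at five concentrations; endpoints were interpolated linearly between bracketing concentrations, or set to the highest concentration if not reached. GI50 marks 50% less growth.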 Active and inactive are the calls of the source. No stated cut-off is given here; in the data, active = GI50 up to about 1.1 µM and inactive = higher.

Key:
Assay in all cases: inhibition of tumour cell growth, NCI panel, 48 h
786-0 = tested on: 786-0
A498 = tested on: A498
BT-549 = tested on: BT-549
COLO 205 = tested on: COLO 205
DU-145 = tested on: DU-145
HL-60 = tested on: HL-60
HT-29 = tested on: HT-29
KM12 = tested on: KM12
NCI-H522 = tested on: NCI-H522
OVCAR-4 = tested on: OVCAR-4
OVCAR-5 = tested on: OVCAR-5
OVCAR-8 = tested on: OVCAR-8
SF-539 = tested on: SF-539
SK-OV-3 = tested on: SK-OV-3
SNB-19 = tested on: SNB-19
SNB-75 = tested on: SNB-75
SR = tested on: SR
SW-620 = tested on: SW-620
TK-10 = tested on: TK-10
U-251 = tested on: U-251

Measured: GI50

Cc1ccc(S(=O)(=O)SC(C)(C)C)cc1
inactive: 786-0 16.9 µM | A498 > 100 µM | BT-549 22.4 µM | COLO 205 47.6 µM | DU-145 > 100 µM | HL-60 18 µM | HT-29 13.1 µM | KM12 45.2 µM | NCI-H522 14.7 µM | OVCAR-4 22.2 µM | OVCAR-5 > 48.4 µM | OVCAR-8 21.3 µM | SF-539 32.1 µM | SK-OV-3 > 100 µM | SNB-19 > 100 µM | SNB-75 > 63.5 µM | SR 12.2 µM | SW-620 22.2 µM | TK-10 40.3 µM | U-251 > 100 µM

CCCCCCCCCC[C@H](O)[C@H]1CC[C@H]([C@H]2CC[C@H]([C@H](O)CC[C@H](O)CCCCCCC[C@@H](O)CC3=C[C@H](C)OC3=O)O2)O1
inactive: 786-0 25.1 µM | A498 1.75 µM | BT-549 68.1 µM | COLO 205 12.2 µM | DU-145 > 10 µM | HL-60 2.51 µM | HT-29 > 10 µM | KM12 9.14 µM | NCI-H522 10.7 µM | OVCAR-4 41.4 µM | OVCAR-5 > 10 µM | OVCAR-8 85.7 µM | SF-539 24 µM | SNB-19 17 µM | SNB-75 19.1 µM | SR 9.14 µM | SW-620 > 10 µM | TK-10 31 µM | U-251 > 10 µM

Nc1c2cc3ccc2nc2ccc(cc12)OCCOCCOCCOCCOCCOCCO3
inactive: 786-0 > 10 µM | A498 > 10 µM | BT-549 > 10 µM | COLO 205 > 10 µM | DU-145 > 10 µM | HL-60 > 10 µM | HT-29 > 10 µM | KM12 > 10 µM | NCI-H522 > 10 µM | OVCAR-4 > 10 µM | OVCAR-5 > 10 µM | OVCAR-8 > 10 µM | SF-539 > 10 µM | SK-OV-3 > 10 µM | SNB-19 > 10 µM | SNB-75 > 10 µM | SR > 10 µM | SW-620 > 10 µM | TK-10 > 10 µM | U-251 > 10 µM

c1ccc(C2(c3ccccc3)S/C(=C3/SC(c4ccccc4)(c4ccccc4)c4ccccc43)c3ccccc32)cc1
inactive: 786-0 > 100 µM | A498 > 100 µM | BT-549 > 100 µM | COLO 205 > 100 µM | DU-145 > 100 µM | HL-60 > 100 µM | HT-29 > 100 µM | KM12 > 100 µM | NCI-H522 > 100 µM | OVCAR-4 > 100 µM | OVCAR-5 > 100 µM | OVCAR-8 > 100 µM | SF-539 > 100 µM | SK-OV-3 > 100 µM | SNB-19 > 100 µM | SNB-75 > 100 µM | SR > 100 µM | SW-620 > 100 µM | TK-10 > 100 µM | U-251 > 100 µM

CCCCN(CCCC)CC(=O)c1ccc2cc(Cl)c3ccccc3c2c1
inactive: 786-0 57.4 µM | A498 20.7 µM | BT-549 19.1 µM | COLO 205 14.9 µM | DU-145 > 100 µM | HL-60 24.1 µM | HT-29 17.4 µM | KM12 32 µM | NCI-H522 16.4 µM | OVCAR-4 24.2 µM | OVCAR-5 51.1 µM | OVCAR-8 20 µM | SF-539 42.6 µM | SK-OV-3 31 µM | SNB-19 33.7 µM | SNB-75 29.8 µM | SR 16.1 µM | SW-620 29.8 µM | TK-10 50 µM | U-251 19.6 µM

O=C(N/N=C\c1ccc(Cl)cc1)Nc1cccc2ccccc12
inactive: 786-0 1.98 µM | A498 2.67 µM | BT-549 21.7 µM | COLO 205 4.75 µM | DU-145 5.57 µM | HL-60 4.93 µM | HT-29 3.21 µM | KM12 2.61 µM | NCI-H522 4.83 µM | OVCAR-4 2.59 µM | OVCAR-5 25.8 µM | OVCAR-8 5.2 µM | SF-539 5.41 µM | SK-OV-3 2.71 µM | SNB-19 2.66 µM | SNB-75 2.4 µM | SR 3.16 µM | SW-620 3.41 µM | TK-10 3.32 µM | U-251 2.96 µM

Cc1c2cccc-2ccc2c1[nH]c1ccccc12
inactive: 786-0 2.81 µM | A498 13.6 µM | BT-549 3.24 µM | COLO 205 1.89 µM | DU-145 4.55 µM | HL-60 3.1 µM | HT-29 3.78 µM | KM12 2.34 µM | NCI-H522 1.93 µM | OVCAR-4 2.23 µM | OVCAR-5 2.12 µM | OVCAR-8 2.54 µM | SF-539 1.81 µM | SK-OV-3 3.23 µM | SNB-19 2.7 µM | SNB-75 2.14 µM | SR 3.05 µM | SW-620 2.36 µM | TK-10 2.32 µM | U-251 1.66 µM
